Experiments:
[1] = test system: MDA cells; test: Cytotoxicity against MDA cell line; details: read-out: Cytotoxicity IC50 MDA
[2] = test system: Hela cells; test: Cytotoxicity against Hela cell line; details: read-out: Cytotoxicity IC50 Hela
[3] = test system: A549 cell line; test: Cytotoxicity against A549 cell line; details: read-out: Cytotoxicity IC50 A549
[4] = molecular target: EGFR (Homo sapiens, UniProt P00533); test: EGFR enzyme inhibitory activity
Experimental: (§1) The synthesized compounds were evaluated for anticancer activity by adapting a reported procedure [29, 30, 31, 32, 33] using two enzymes, VEGFR2 and EGFR, as well as three cell lines.

[5] = molecular target: VEGFR2 (Homo sapiens, UniProt P35968); test: VEGFR2 enzyme inhibitory activity
Chain of VEGFR2 (P35968 20-1356): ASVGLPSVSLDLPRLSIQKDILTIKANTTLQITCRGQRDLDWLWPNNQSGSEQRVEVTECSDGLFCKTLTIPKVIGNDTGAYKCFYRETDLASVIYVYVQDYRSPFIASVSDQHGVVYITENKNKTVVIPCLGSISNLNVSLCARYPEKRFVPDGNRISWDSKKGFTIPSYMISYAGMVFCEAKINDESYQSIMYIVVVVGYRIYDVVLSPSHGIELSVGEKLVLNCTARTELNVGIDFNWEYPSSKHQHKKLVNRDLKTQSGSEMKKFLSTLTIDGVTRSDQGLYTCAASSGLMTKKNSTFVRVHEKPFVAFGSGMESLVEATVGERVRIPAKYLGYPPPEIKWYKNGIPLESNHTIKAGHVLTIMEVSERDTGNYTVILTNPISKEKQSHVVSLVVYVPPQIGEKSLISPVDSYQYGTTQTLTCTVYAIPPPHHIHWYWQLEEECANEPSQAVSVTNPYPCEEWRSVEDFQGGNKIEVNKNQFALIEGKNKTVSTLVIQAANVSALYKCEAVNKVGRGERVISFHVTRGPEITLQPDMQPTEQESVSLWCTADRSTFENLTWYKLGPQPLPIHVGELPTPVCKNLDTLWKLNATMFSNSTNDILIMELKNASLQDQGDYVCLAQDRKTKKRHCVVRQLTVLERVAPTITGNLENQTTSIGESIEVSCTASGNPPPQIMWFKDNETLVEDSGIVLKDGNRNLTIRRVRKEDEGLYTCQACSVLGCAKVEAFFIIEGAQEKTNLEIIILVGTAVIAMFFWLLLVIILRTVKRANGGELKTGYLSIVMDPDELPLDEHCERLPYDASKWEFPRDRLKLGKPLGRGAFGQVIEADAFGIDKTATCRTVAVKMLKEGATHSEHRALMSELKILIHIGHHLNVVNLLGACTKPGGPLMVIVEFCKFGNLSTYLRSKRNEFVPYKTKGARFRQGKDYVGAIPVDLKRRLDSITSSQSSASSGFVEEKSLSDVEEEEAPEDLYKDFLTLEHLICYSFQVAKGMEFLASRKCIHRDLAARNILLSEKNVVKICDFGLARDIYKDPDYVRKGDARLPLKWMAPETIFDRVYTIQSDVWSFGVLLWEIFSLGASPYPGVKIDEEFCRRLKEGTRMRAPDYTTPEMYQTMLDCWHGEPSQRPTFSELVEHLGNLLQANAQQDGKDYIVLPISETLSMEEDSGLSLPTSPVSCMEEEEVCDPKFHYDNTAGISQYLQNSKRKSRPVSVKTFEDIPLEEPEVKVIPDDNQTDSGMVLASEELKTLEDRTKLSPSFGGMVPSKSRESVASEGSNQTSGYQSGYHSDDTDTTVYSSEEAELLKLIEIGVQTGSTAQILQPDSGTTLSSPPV
Experimental: as §1

[6] = relative to docetaxel, from IC50 values

Chain of EGFR (P00533 25-1210): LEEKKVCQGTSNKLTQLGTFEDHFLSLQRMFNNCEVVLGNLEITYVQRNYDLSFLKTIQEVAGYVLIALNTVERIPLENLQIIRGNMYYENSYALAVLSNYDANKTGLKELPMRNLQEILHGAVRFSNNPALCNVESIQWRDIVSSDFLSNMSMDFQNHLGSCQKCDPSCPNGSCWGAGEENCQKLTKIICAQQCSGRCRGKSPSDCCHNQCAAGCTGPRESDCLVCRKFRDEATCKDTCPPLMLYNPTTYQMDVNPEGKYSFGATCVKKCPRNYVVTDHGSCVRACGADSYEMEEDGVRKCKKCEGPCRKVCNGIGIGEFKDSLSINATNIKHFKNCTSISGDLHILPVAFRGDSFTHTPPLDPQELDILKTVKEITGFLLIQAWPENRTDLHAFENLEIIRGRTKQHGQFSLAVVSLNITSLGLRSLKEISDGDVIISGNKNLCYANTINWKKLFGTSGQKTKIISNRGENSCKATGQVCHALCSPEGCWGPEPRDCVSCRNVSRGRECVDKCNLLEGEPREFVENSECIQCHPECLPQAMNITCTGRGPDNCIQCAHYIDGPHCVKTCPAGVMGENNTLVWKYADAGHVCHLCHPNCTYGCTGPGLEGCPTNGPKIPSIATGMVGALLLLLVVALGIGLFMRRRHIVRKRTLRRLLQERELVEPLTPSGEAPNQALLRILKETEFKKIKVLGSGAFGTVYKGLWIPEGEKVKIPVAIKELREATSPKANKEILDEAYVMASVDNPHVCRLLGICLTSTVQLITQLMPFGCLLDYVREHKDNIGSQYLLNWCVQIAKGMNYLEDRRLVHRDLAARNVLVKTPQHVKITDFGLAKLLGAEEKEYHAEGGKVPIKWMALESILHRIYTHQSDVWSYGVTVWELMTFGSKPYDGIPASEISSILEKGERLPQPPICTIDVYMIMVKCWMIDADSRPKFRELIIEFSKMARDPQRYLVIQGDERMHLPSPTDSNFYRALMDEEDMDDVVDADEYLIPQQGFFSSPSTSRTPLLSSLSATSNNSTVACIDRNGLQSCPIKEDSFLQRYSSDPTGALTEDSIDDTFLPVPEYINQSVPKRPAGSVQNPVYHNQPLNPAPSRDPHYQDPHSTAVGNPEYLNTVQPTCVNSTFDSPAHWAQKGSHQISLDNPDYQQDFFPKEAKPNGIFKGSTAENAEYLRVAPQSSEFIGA

Structure (SMILES)	melting point [°C]	IC50 [1] [µM]	IC50 [2] [µM]	IC50 [3] [µM]	IC50 [4] [µM]	inhibitory activity for enzyme EGFR compared to the reference drug [4, 6] [%]	IC50 [5] [µM]	inhibitory activity for enzyme VEGFR2 compared to the reference drug [5, 6] [%]
COc1cc(-c2nc3c(OC)cccc3c(=O)o2)cc(OC)c1OC [Compound 3, 8-methoxy-2-trimethoxyphenyl-4H-benzo[d](1,3)oxazin-4-one]	182 to 184	17.4 ± 0.5	66.5 ± 1.74	43.6 ± 1.1				
COc1cc(-c2nc3c(OC)cccc3c(=O)n2N)cc(OC)c1OC [Compound 4, 3-amino-8-methoxy-2-trimethoxyphenylquanazoline-4(3H)-one]	182 to 184	4.12 ± 0.1	29.8 ± 0.78	18 ± 0.5				
COc1cc(-c2nc3c(OC)cccc3c(=O)[nH]2)cc(OC)c1OC [Compound 5, 8-methoxy-2-trimethoxyphenylquanazoline-4(3H)-one]	242 to 244	4.39 ± 0.1	12.9 ± 0.34	26.3 ± 0.7				
COc1cccc(C(N)=O)c1NC(=O)c1cc(OC)c(OC)c(OC)c1 [Compound 6]	132 to 134	0.79 ± 0.04	2.8 ± 0.07	81 ± 2.1	0.106 ± 0.00222	~53	0.0981 ± 0.00293	~91
COc1cccc(C(=O)NN)c1NC(=O)c1cc(OC)c(OC)c(OC)c1 [Compound 7, 3-methoxy-2-(trimethoxybenzamido)-benzoylhydrazide]	195 to 197	9 ± 0.2	18.7 ± 0.49	46.3 ± 1.2				
COc1cccc(C(=O)NNS(=O)(=O)c2ccccc2)c1NC(=O)c1cc(OC)c(OC)c(OC)c1 [Compound 8, 3-methoxy-2-(trimethoxybenzamido)-N-[benzenesulphonyl]benzoylhydrazide]	263 to 265	11.7 ± 0.3	4.94 ± 0.13	13 ± 0.3				
COc1cc(-c2nc3c(OC)cccc3c(=O)n2NS(=O)(=O)c2ccccc2)cc(OC)c1OC [Compound 9, 3-benzenesulfamoyl-8-methoxy-2-trimethoxyphenylquanazoline-4(3H)-one]	244 to 246	3.42 ± 0.1	11.7 ± 0.31	19.9 ± 0.5				
COc1cc(-c2nc3c(OC)cccc3c(=O)n2C)cc(OC)c1OC [Compound 10, 3-methyl-8-methoxy-2-trimethoxyphenylquanazoline-4(3H)-one]	218 to 220	7.77 ± 0.2	3.98 ± 0.1	12.3 ± 0.3				
COc1cc(-c2nc3c(OC)cccc3c(=O)n2-c2cc(OC)c(OC)c(OC)c2)cc(OC)c1OC [Compound 11]	237 to 239	7.06 ± 0.2	12 ± 0.31	4.03 ± 0.1				
CC(=O)O[C@@]12CO[C@@H]1C[C@H](O)[C@@]1(C)C(=O)[C@H](O)C3=C(C)[C@@H](OC(=O)[C@H](O)[C@@H](NC(=O)OC(C)(C)C)c4ccccc4)C[C@@](O)([C@@H](OC(=O)c4ccccc4)[C@H]21)C3(C)C [Docetaxel, docetaxel, reference compound]		3.98 ± 0.08	9.65 ± 0.2	10.8 ± 0.23	0.0561 ± 0.00117		0.0893 ± 0.00267	

From paper PMC8157871, “Synthesis, Anticancer Screening of Some Novel Trimethoxy Quinazolines and VEGFR2, EGFR Tyrosine Kinase Inhibitors Assay; Molecular Docking Studies” (Molecules, 2021)
